{"source": "patent US20110257035A1", "about": "“IDENTIFICATION OF SIGNATURE GENES ASSOCIATED WITH HEPATOCELLULAR CARCINOMA” (Bayer Healthcare LLC, priority 2008, published 2011)", "format_in_all_cases": "in vivo, human", "key": {"[1]": {"test_system": "hepatocellular carcinoma (HCC)", "assay": "Overall survival / time to progression in placebo-controlled HCC trial (SHARP), Cox multivariate analysis", "description": "Overall survival (OS) is defined as the time from randomization to death due to any cause. Overall survival (OS) of subjects alive at the time of analysis will be censored at their last date of follow-up.\nTime to progression (TTP) is defined as the time from randomization to disease progression (radiological only). Patients without tumor progression at the time of analysis will be censored at their last date of tumor evaluation."}, "[2]": {"test_system": "plasma bFGF", "assay": "Plasma bFGF level, baseline vs C3D1, HCC patients"}, "[3]": {"test_system": "plasma Ang2", "assay": "Plasma Ang2 level, baseline vs C3D1, HCC patients"}, "[4]": {"test_system": "plasma HGF", "assay": "Plasma HGF ELISA, baseline vs C3D1, HCC patients"}, "[5]": {"test_system": "plasma Ras p21", "assay": "Plasma Ras p21 ELISA, baseline vs C3D1, HCC patients", "details": "for Ras p21 Δ from BL (e) / mean change in sorafenib arm: C3D1, mean of per-subject absolute change, p vs placebo 0.046", "method": "ELISA kits for Ras p21 (cat #06490009) were from Oncogene Science Biomarker Group, part of Siemens Diagnostics, Cambridge, Mass. This assay detects all forms of circulating Ras p21 (H-Ras, N-Ras, and […]).\nAfter washing, a streptavidin-horseradish peroxidase conjugate was added."}, "[6]": {"test_system": "plasma IGF-2", "assay": "Plasma IGF-2 level, baseline vs C3D1, HCC patients"}, "[7]": {"test_system": "plasma EGF", "assay": "Plasma EGF level, baseline vs C3D1, HCC patients"}, "[8]": {"test_system": "plasma VEGF", "assay": "Plasma VEGF ELISA, baseline vs C3D1, HCC patients"}, "[9]": {"test_system": "plasma c-KIT (s-c-Kit)", "assay": "Plasma c-KIT ELISA, baseline vs cycle 3 day 1 (C3D1), HCC patients", "method": "Plasma samples were obtained from patients at the time of screening, C3D1, and at the end of treatment visit.\nAll six assays were sandwich immunoassays obtained from commercial sources. All assays were performed according to the manufacturers' protocols, as summarized below. All samples were assayed in duplicate and the average value was used for correlative analysis.\nELISA kits for VEGF (cat #DVE00), s-VEGFR-2 (cat #DVR200), HGF (cat #DHG00), and c-KIT (cat #DSCR00) were obtained from R&D Systems.\nA monoclonal capture antibody specific to the target protein was provided pre-coated in microplate wells. Appropriately diluted samples and standards were pipetted into the wells, allowing capture of the target protein by the immobilized antibodies. Unbound sample was washed away, and a horseradish peroxidase-conjugated antibody also specific for the target protein was added to the wells. Wells were washed again, and a substrate solution was added to each well. The colored reaction product was measured spectrophotometrically and was translated to the quantity (pg/mL or ng/mL) of biomarker protein in the sample by use of a simultaneously generated standard curve."}, "[10]": {"details": "sorafenib-treated HCC patients, C3D1 vs baseline"}, "[11]": {"details": "sorafenib arm, C3D1, mean of per-subject absolute change, p vs placebo <0.0001"}, "[12]": {"details": "plasma level, in response to sorafenib treatment"}}, "note": "“Also recorded” adds a separate entry of the source.", "data": [{"smiles": "CNC(=O)c1cc(Oc2ccc(NC(=O)Nc3ccc(Cl)c(C(F)(F)F)c3)cc2)ccn1", "note": "[Sorafenib]", "values": [{"measurement": "time to progression and/or overall survival compared to placebo treated subjects", "setting": "[1]; HCC patients", "value": "increases"}, {"measurement": "Treatment HR for OS", "setting": "[1]; multivariate analysis of all patients, sorafenib vs placebo, P-value 0.043", "value": 0.779}, {"measurement": "bFGF Δ from BL (e)", "setting": "[2]; sorafenib arm, C3D1, mean of per-subject absolute change, p vs placebo 0.196", "value": 2.5, "unit": "pg/mL"}, {"measurement": "Direction of change of plasma bFGF in sorafenib", "setting": "[2]; [10]", "value": "None"}, {"measurement": "Ang2 Δ from BL (e)", "setting": "[3]; [11]", "value": -293.0, "unit": "pg/mL"}, {"measurement": "Ang2 Mean (d)", "setting": "[3]; sorafenib arm, C3D1, baseline mean 7510.0", "value": 6456.4, "unit": "pg/mL"}, {"measurement": "Direction of change of plasma Ang2 in sorafenib", "setting": "[3]; [10]", "value": "attenuated and remain unchanged and does not change significantly and None"}, {"measurement": "median absolute change of plasma HGF levels", "setting": "[4]; intra-patient sorafenib-associated C3D1 change compared to baseline", "value": -294.02, "unit": "pg/mL"}, {"measurement": "HGF Mean change in sorafenib arm", "setting": "[4]; [12]", "value": "−7.4", "unit": "%"}, {"measurement": "HGF Δ from BL (e)", "setting": "[4]; [11]", "value": -285.0, "unit": "pg/mL"}, {"measurement": "HGF Mean (d)", "setting": "[4]; sorafenib arm, C3D1, baseline mean 2630.0", "value": 2220.3, "unit": "pg/mL"}, {"measurement": "Direction of change of plasma HGF in response to sorafenib", "setting": "[4]; [10]", "value": "attenuated; also recorded: decrease"}, {"measurement": "Ras p21 Δ from BL (e) / mean change in sorafenib arm", "setting": "[5]; sorafenib arm", "value": -259.8, "unit": "pg/mL"}, {"measurement": "Ras p21 Δ from BL (e) / mean change in sorafenib arm", "setting": "[5]; sorafenib arm, listed as sorafenib", "value": -259.8, "unit": "pg/mL"}, {"measurement": "Ras p21 Mean (d)", "setting": "[5]; sorafenib arm, C3D1, baseline mean 2115.7", "value": 1144.7, "unit": "pg/mL"}, {"measurement": "Direction of change of plasma Ras p21 in response to sorafenib", "setting": "[5]; [10]", "value": "attenuated; also recorded: decrease"}, {"measurement": "IGF-2 Mean change in sorafenib", "setting": "[6]; [12]", "value": "−11.3", "unit": "%"}, {"measurement": "IGF-2 Δ from BL (e)", "setting": "[6]; sorafenib arm, C3D1, mean of per-subject absolute change, p vs placebo 0.145", "value": -129.4, "unit": "ng/mL"}, {"measurement": "IGF-2 Mean (d)", "setting": "[6]; sorafenib arm, C3D1, baseline mean 938.8", "value": 847.9, "unit": "ng/mL"}, {"measurement": "Direction of change of plasma IGF-2 in sorafenib", "setting": "[6]; [10]", "value": "decreases"}, {"measurement": "EGF Δ from BL (e)", "setting": "[7]; sorafenib arm, C3D1, mean of per-subject absolute change, p vs placebo 0.240", "value": -8.9, "unit": "pg/mL"}, {"measurement": "EGF Mean (d)", "setting": "[7]; sorafenib arm, C3D1, baseline mean 61.8", "value": 53.4, "unit": "pg/mL"}, {"measurement": "Direction of change of plasma EGF in sorafenib", "setting": "[7]; [10]", "value": "decreases; also recorded: Mixed"}, {"measurement": "VEGF Mean change in sorafenib arm", "setting": "[8]; [12]", "value": "+195.7%"}, {"measurement": "VEGF Δ from BL (e)", "setting": "[8]; sorafenib arm, C3D1, mean of per-subject absolute change, p vs placebo 0.010", "value": 66.8, "unit": "pg/mL"}, {"measurement": "VEGF Mean (d)", "setting": "[8]; sorafenib arm, C3D1, baseline mean 100.7", "value": 170.1, "unit": "pg/mL"}, {"measurement": "Direction of change of plasma VEGF in response to sorafenib", "setting": "[8]; [10]", "value": "elevated; also recorded: increase"}, {"measurement": "c-KIT Mean change in sorafenib arm", "setting": "[9]; [12]", "value": "−33.9", "unit": "%"}, {"measurement": "c-KIT Δ from BL (e)", "setting": "[9]; [11]", "value": -4.5, "unit": "ng/mL"}, {"measurement": "c-KIT Mean (d)", "setting": "[9]; sorafenib arm, C3D1, baseline mean 12.2", "value": 8.6, "unit": "ng/mL"}, {"measurement": "Direction of change of plasma c-KIT in response to sorafenib", "setting": "[9]; [10]", "value": "attenuated; also recorded: decrease"}]}]}
